Test results: patent publication US10508104B2, “6-hydroxy-5-(phenyl/heteroarylsulfonyl)pyrimidin-4(1H)-one as APJ agonists” (Bristol-Myers Squibb Company, priority 2016, dated 2019)

Biological target: human APJ receptor (Homo sapiens (Human), UniProt P35414)
Experiment: Intracellular cAMP accumulation assay (APJ hcAMP, HTRF)
Format: cell-based
Conditions: HEK293 cells stably expressing human APJ receptor; inhibition of forskolin-mediated cAMP production; read-out: Human APJ cAMP EC50 Potency range
Procedure, shortened: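 HEK293 cells stably expressing human APJ, 5,000 per well, incubated 30 min at rt with compound, […] and 2 μM forskolin. cAMP measured by HTRF against a cAMP standard curve as inhibition of forskolin-driven production. EC50 from variable-slope sigmoidal fit.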

Chain of human APJ receptor (P35414 whole entry): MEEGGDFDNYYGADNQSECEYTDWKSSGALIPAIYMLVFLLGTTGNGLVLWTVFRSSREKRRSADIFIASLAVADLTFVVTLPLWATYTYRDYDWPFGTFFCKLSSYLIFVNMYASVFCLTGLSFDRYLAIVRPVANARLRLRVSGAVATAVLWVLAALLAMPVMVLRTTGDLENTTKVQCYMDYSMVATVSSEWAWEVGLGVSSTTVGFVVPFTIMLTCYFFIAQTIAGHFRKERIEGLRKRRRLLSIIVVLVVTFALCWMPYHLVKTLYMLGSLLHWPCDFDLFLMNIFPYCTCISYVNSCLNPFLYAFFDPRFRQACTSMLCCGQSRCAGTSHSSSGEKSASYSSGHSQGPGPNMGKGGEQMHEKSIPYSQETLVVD

SMILES	EC50
CCCCc1nc(=O)c(S(=O)(=O)c2ccc(-c3ccc(F)nc3C)cn2)c(O)n1[C@@H](CC)c1cccc(C#N)c1 [Example 454, 3-[(1S)-1-[2-butyl-5-({6′-fluoro-2′-methyl-[3,3′-bipyridine]-6-yl}sulfonyl)-6-hydroxy-4-oxo-1,4-dihydropyrimidin-1-yl]propyl]benzonitrile]	0.01 to 10 nM
CCCCc1nc(=O)c(S(=O)(=O)c2ccc(-c3cccnc3C)cn2)c(O)n1[C@@H](CC)c1cccc(C#N)c1 [Example 455, 3-[(1S)-1-[2-butyl-6-hydroxy-5-({2′-methyl-[3,3′-bipyridine]-6-yl}sulfonyl)-4-oxo-1,4-dihydropyrimidin-1-yl]propyl]benzonitrile]	0.01 to 10 nM
CCCCc1nc(=O)c(S(=O)(=O)c2ccc(-c3ccnc(F)c3C)cn2)c(O)n1[C@@H](CC)c1cccc(C#N)c1 [Example 456, 3-[(1S)-1-[2-butyl-5-({2′-fluoro-3′-methyl-[3,4′-bipyridine]-6-yl}sulfonyl)-6-hydroxy-4-oxo-1,4-dihydropyrimidin-1-yl]propyl]benzonitrile]	0.01 to 10 nM
CCCCc1nc(=O)c(S(=O)(=O)c2ccc(-c3cccnc3C)cc2)c(O)n1C(c1cccc(C#N)c1)C1CC1 (centres unmarked) [Example 460, 3-({2-butyl-6-hydroxy-5-[4-(2-methylpyridin-3-yl)benzenesulfonyl]-4-oxo-1,4-dihydropyrimidin-1-yl}(cyclopropyl)methyl) benzonitrile]	0.01 to 10 nM
CCCCc1nc(=O)c(S(=O)(=O)c2ccc(-c3ccncc3C)cc2)c(O)n1C(c1cccc(C#N)c1)C1CC1 (centres unmarked) [Example 462, 3-({2-butyl-6-hydroxy-5-[4-(3-methylpyridin-4-yl)benzenesulfonyl]-4-oxo-1,4-dihydropyrimidin-1-yl}(cyclopropyl)methyl) benzonitrile]	0.01 to 10 nM
CCCCc1nc(=O)c(S(=O)(=O)c2ccc(-c3ccc(F)cc3C(N)=O)cn2)c(O)n1[C@@H](CC)c1cccc(C#N)c1 [Example 464, 2-[6-({2-butyl-1-[(1S)-1-(3-cyanophenyl)propyl]-6-hydroxy-4-oxo-1,4-dihydropyrimidin-5-yl)sulfonyl)pyridin-3-yl]-5-fluorobenzamide]	0.01 to 10 nM
CC[C@@H](c1cccc(C#N)c1)n1c(CC2CC2)nc(=O)c(S(=O)(=O)c2ccc(-c3ccccc3C(N)=O)cc2)c1O [Example 468, 4′-({1-[(1S)-1-(3-cyanophenyl)propyl]-2-(cyclopropylmethyl)-6-hydroxy-4-oxo-1,4-dihydropyrimidin-5-yl}sulfonyl)-[1,1′-biphenyl]-2-carboxamide]	0.01 to 10 nM
CC[C@@H](c1cccc(C#N)c1)n1c(CC2CC2)nc(=O)c(S(=O)(=O)c2ccc(-c3ccncc3C(N)=O)cc2)c1O [Example 470, 4-[4-({1-[(1S)-1-(3-cyanophenyl)propyl]-2-(cyclopropylmethyl)-6-hydroxy-4-oxo-1,4-dihydropyrimidin-5-yl}sulfonyl)phenyl] pyridine-3-carboxamide]	0.01 to 10 nM
CC[C@@H](c1cc(F)cc(C#N)c1)n1c(CC2CC2)nc(=O)c(S(=O)(=O)c2ccc(-c3ccc(F)cc3C(N)=O)cc2)c1O [Example 473, 4′-({1-[(1S)-1-(3-cyano-5-fluorophenyl)propyl]-2-(cyclopropylmethyl)-6-hydroxy-4-oxo-1,4-dihydropyrimidin-5-yl}sulfonyl)-4-fluoro-[1,1′-biphenyl]-2-carboxamide]	0.01 to 10 nM

Continued, values first:

EC50	SMILES
0.01 to 10 nM	CCCCc1nc(=O)c(S(=O)(=O)c2ccc(-c3ccncc3C)cn2)c(O)n1[C@@H](CC)c1cccc(C#N)c1 [Example 457, 3-[(1S)-1-[2-butyl-6-hydroxy-5-({3′-methyl-[3,4′-bipyridine]-6-yl}sulfonyl)-4-oxo-1,4-dihydropyrimidin-1-yl]propyl]benzonitrile]
0.01 to 10 nM	CCCCc1nc(=O)c(S(=O)(=O)c2ccc(-c3ccnc(F)c3C)cc2)c(O)n1[C@@H](CC)c1cc(F)cc(C#N)c1 [Example 458, 3-[(1S)-1-{2-butyl-5-[4-(2-fluoro-3-methylpyridin-4-yl)benzenesulfonyl]-6-hydroxy-4-oxo-1,4-dihydropyrimidin-1-yl}propyl]-5-fluorobenzonitrile]
0.01 to 10 nM	CCCCc1nc(=O)c(S(=O)(=O)c2ccc(-c3ccnc(F)c3C)cc2)c(O)n1C(c1cccc(C#N)c1)C1CC1 (centres unmarked) [Example 459, 3-({2-butyl-5-[4-(2-fluoro-3-methylpyridin-4-yl)benzenesulfonyl]-6-hydroxy-4-oxo-1,4-dihydropyrimidin-1-yl}(cyclopropyl)methyl) benzonitrile]
0.01 to 10 nM	CCCCc1nc(=O)c(S(=O)(=O)c2ccc(-c3ccc(F)nc3C)cc2)c(O)n1C(c1cccc(C#N)c1)C1CC1 (centres unmarked) [Example 461, 3-({2-butyl-5-[4-(6-fluoro-2-methylpyridin-3-yl)benzenesulfonyl]-6-hydroxy-4-oxo-1,4-dihydropyrimidin-1-yl}(cyclopropyl)methyl) benzonitrile]
0.01 to 10 nM	CCCCc1nc(=O)c(S(=O)(=O)c2ccc(-c3ccccc3C#N)cn2)c(O)n1[C@@H](CC)c1cccc(C#N)c1 [Example 463, 2-[6-({2-butyl-1-[(1S)-1-(3-cyanophenyl)propyl]-6-hydroxy-4-oxo-1,4-dihydropyrimidin-5-yl}sulfonyl)pyridin-3-yl]benzonitrile]
0.01 to 10 nM	CCCCc1nc(=O)c(S(=O)(=O)c2ccc(-c3ccccc3C(N)=O)cc2)c(O)n1[C@@H](CC)c1cccc(C#N)c1 [Example 465, 4′-({2-butyl-1-[(1S)-1-(3-cyanophenyl)propyl]-6-hydroxy-4-oxo-1,4-dihydropyrimidin-5-yl}sulfonyl)-[1,1′-biphenyl]-2-carboxamide]
0.01 to 10 nM	CCCCc1nc(=O)c(S(=O)(=O)c2ccc(-c3ccccc3C#N)cc2)c(O)n1[C@@H](CC)c1cccc(C#N)c1 [Example 466, 4′-({2-butyl-1-[(1S)-1-(3-cyanophenyl)propyl]-6-hydroxy-4-oxo-1,4-dihydropyrimidin-5-yl}sulfonyl)-[1,1′-biphenyl]-2-carbonitrile]
0.01 to 10 nM	CCCCc1nc(=O)c(S(=O)(=O)c2ccc(-c3ccccc3C(N)=O)cn2)c(O)n1[C@@H](CC)c1cccc(C#N)c1 [Example 467, 2-[6-({2-butyl-1-[(1S)-1-(3-cyanophenyl)propyl]-6-hydroxy-4-oxo-1,4-dihydropyrimidin-5-yl}sulfonyl)pyridin-3-yl]benzamide]
0.01 to 10 nM	CC[C@@H](c1cccc(C#N)c1)n1c(CC2CC2)nc(=O)c(S(=O)(=O)c2ccc(-c3ccc(F)cc3C(N)=O)cc2)c1O [Example 469, 4′-({1-[(1S)-1-(3-cyanophenyl)propyl]-2-(cyclopropylmethyl)-6-hydroxy-4-oxo-1,4-dihydropyrimidin-5-yl}sulfonyl)-4-fluoro-[1,1′-biphenyl]-2-carboxamide]
0.01 to 10 nM	CC[C@@H](c1cccc(C#N)c1)n1c(CC2CC2)nc(=O)c(S(=O)(=O)c2ccc(-c3cnccc3C#N)cc2)c1O [Example 471, 3-[4-({1-[(1S)-1-(3-cyanophenyl)propyl]-2-(cyclopropylmethyl)-6-hydroxy-4-oxo-1,4-dihydropyrimidin-5-yl}sulfonyl)phenyl] pyridine-4-carbonitrile]
0.01 to 10 nM	CC[C@@H](c1cccc(C#N)c1)n1c(CC2CC2)nc(=O)c(S(=O)(=O)c2ccc(-c3cnccc3C(N)=O)cc2)c1O [Example 472, 3-[4-({1-[(1S)-1-(3-cyanophenyl)propyl]-2-(cyclopropylmethyl)-6-hydroxy-4-oxo-1,4-dihydropyrimidin-5-yl}sulfonyl)phenyl] pyridine-4-carboxamide]
